Assay results: patent US20250140406A1, “CLASSIFYING TUMORS AND PREDICTING RESPONSIVENESS” (Oncocyte Corporation, priority 2022, published 2025)

Legend:
[1] = tested on: cancer cell lines classified IM, MSL, M; test: PRISM screen compound sensitivity correlated with IM, MSL and M subtype of cell lines (101 gene signature); assay type: cell-based
[2] = tested on: cancer cell lines, DetermaIO classes; test: Association of PRISM compound sensitivity with DetermaIO (DTIO) cell line classes; assay type: cell-based
[3] = correlation of PRISM compound sensitivity with IM subtype correlation; test cell set (188 cell lines)
[4] = correlation of PRISM compound sensitivity with M subtype correlation; test cell set (188 cell lines)
[5] = correlation of PRISM compound sensitivity with MSL subtype correlation; test cell set (188 cell lines)
[6] = correlation of PRISM compound sensitivity with DTIO (DetermaIO), test cell set (188 cell lines)
[7] = correlation of PRISM compound sensitivity with DTIO (DetermaIO), training cell set (371 cell lines)
[8] = subtype (IM, MSL or M) with which compound sensitivity is negatively correlated; training cell set (371 cell lines), 101 gene signature
[9] = correlation of PRISM compound sensitivity with DTIO, test cell set
[10] = correlation of PRISM compound sensitivity with DTIO, training cell set
[11] = correlation of PRISM compound sensitivity with IM subtype correlation; test cell set
[12] = correlation of PRISM compound sensitivity with M subtype correlation; test cell set
[13] = correlation of PRISM compound sensitivity with MSL subtype correlation; test cell set
[14] = correlation of compound sensitivity with DetermaIO (DTIO), test set
[15] = correlation of compound sensitivity with DetermaIO (DTIO), training set
[16] = subtype (IM, MSL or M) assigned to the compound by negative correlation of PRISM sensitivity with subtype; training cell set (371 cell lines), 101 gene signature

SMILES | IM Corr test [1, 3] | M Corr test [1, 4] | MSL Corr test [1, 5] | DTIO Corr test [2, 6] | DTIO Corr train [2, 7] | DTIO Corr test [2, 9] | DTIO Corr train [2, 10] | IM Corr test [1, 11] | M Corr test [1, 12] | MSL Corr test [1, 13] | further results
OCCn1cc(-c2cnc3nnn(Cc4ccc5ncccc5c4)c3n2)cn1 [PF-04217903] | −0.04418 | 0.07402 | 0.07771 | −0.00139 | −0.1163 |  |  |  |  |  | 
C[C@H]1Oc2cc(cnc2N)-c2c(nn(C)c2C#N)CN(C)C(=O)c2ccc(F)cc21 [PF-06463922] | −0.1219 | −0.02078 | −0.05668 |  |  | −0.00728 | −0.07689 |  |  |  | TNBCType train [1, 8]: MSL
Cc1ccc([N+](=O)[O-])cc1S(=O)(=O)N(C)/N=C/c1cnc2ccc(Br)cn12 [PIK-75] |  |  |  |  |  | −0.1696 | −0.1178 | −0.1541 | 0.127 | 0.07706 | 
Cc1ccccc1-n1c(Cn2ncc3c(N)ncnc32)nc2cccc(C)c2c1=O [PIK-293] |  |  |  |  |  | 0.02467 | −0.1397 | −0.06338 | 0.066 | 0.00947 | 
Nc1ncnc2c1c(-c1cnc3[nH]ccc3c1)nn2C1CCCC1 [PP-121] | −0.08606 | 0.07821 | 0.02379 | −0.08787 | −0.1218 |  |  |  |  |  | 
N#CSc1cc(SC#N)c(N)nc1N [PR-619] |  |  |  |  |  | 0.05674 | 0.0993 | 0.1495 | −0.2203 | −0.1223 | DTIO Corr test [2, 14]: 0.05674; DTIO Corr train [2, 15]: 0.0993
O=C(NCc1cccc(O)c1)Nc1nc(-c2ccncc2)cs1 [RKI-1447] | 0.09379 | −0.1921 | −0.2082 |  |  | 0.08122 | 0.04633 |  |  |  | TNBCType train [1, 8]: MSL; TNBCType test ([1]; subtype (IM, MSL, M) with which compound sensitivity correlates, test set): MSL; TNBCType train ([1]; subtype (IM, MSL, M) with which compound sensitivity correlates, training set): MSL; TNBCType test ([1]; subtype (IM, MSL, M) with which compound sensitivity correlates; test set): MSL; TNBCType train ([1]; subtype (IM, MSL, M) with which compound sensitivity correlates; training set): MSL; DTIO Corr test ([2]; correlation of compound sensitivity with DTIO, test set): 0.08122; DTIO Corr train ([2]; correlation of compound sensitivity with DTIO, training set): 0.04633; DTIO Corr test [2, 14]: 0.08122; DTIO Corr train [2, 15]: 0.04633
O=[N+]([O-])c1cc(Cl)ccc1S(=O)(=O)N1CCN(Cc2ccccc2)CC1 [RN-1747] |  |  |  |  |  | −0.09773 | −0.1839 | −0.1441 | 0.1428 | 0.1269 | 
CC(C)c1cc(-c2ccc(F)c3ccccc23)nc(N)n1 [RS-127445] | 0.05394 | −0.1296 | −0.05973 | 0.0427 | 0.05431 |  |  |  |  |  | TNBCType train [1, 16]: MSL
O=c1[nH]ccc2cc(OC3CCNCC3)ccc12 [SAR407899] | 0.003595 | −0.1052 | −0.2277 | −0.00558 | 0.07673 |  |  |  |  |  | TNBCType train [1, 16]: MSL
COC(=O)[C@H](NC(=O)c1cc(-c2ccccc2)nc2ccccc12)c1ccccc1 [SB-218795] | −0.01019 | 0.01779 | −0.1047 | −0.06114 | −0.1377 |  |  |  |  |  | 
Cc1cccc(-c2[nH]c(C(C)(C)C)nc2-c2ccc3c(c2)OCO3)n1 [SB-505124] |  |  |  |  |  | 0.1683 | 0.2562 | 0.2475 | −0.1987 | −0.01627 | DTIO Corr test [2, 14]: 0.1683; DTIO Corr train [2, 15]: 0.2562
COc1ccc(S(=O)(=O)N2CCCN(S(=O)(=O)c3ccc(OC)c(OC)c3)CC2)cc1OC [SB-756050] |  |  |  |  |  | −0.06711 | −0.07957 | −0.03347 | −0.03952 | 0.01577 | 
C=C(C)CN1CC[C@]23c4c5ccc(O)c4O[C@H]2c2[nH]c4ccccc4c2C[C@@]3(O)C1C5.Cl.O [SDM25N] | −0.1682 | 0.08807 | −0.06407 |  |  | −0.165 | −0.12 |  |  |  | 
COc1cc2ncnc(Sc3nnc(C)s3)c2cc1OC [SKLB1002] |  |  |  |  |  | 0.03788 | 0.02384 | 0.0147 | −0.00342 | −0.05424 | TNBCType train ([1]; subtype (IM, MSL or M) with which PRISM compound sensitivity is negatively correlated; training cell set, 101 gene signature): MSL
